4 compounds from patent publication US10563270B2, “Solid forms of menaquinols” (Gnosis S.p.A., priority 2015, dated 2020) can be followed below.

Data set [1] has as its system Caco-2 human adenocarcinoma cells. Description: Absorption of reduced or oxidised vitamin K2-(MK7) on cell monolayer of Caco-2 cells in vitro. It is filed as in vitro ADME. The settings on record: for amount of vitamin internalized by the cell layer (μg of vitamin per g of homogenate): 100 μM vitamin applied to apical compartment, 1% ethanol. Here is the method:
Caco-2 human adenocarcinoma cells were cultured on a permeable insert inserted in the well of a microplate to form a confluent monolayer with the barrier function between an apical and a basolateral compartment. The perfect integrity of the monolayer was determined by testing for the absence of passage by lucifer yellow, a compound with low permeability. Samples of vitamin K2-(MK7), alternatively in the reduced form (menaquinol) or the oxidized form (menaquinone), were dissolved in ethanol and applied to the apical compartment, the 1% ethanol solution being added to the incubation buffer. The final solution in the incubation well was fixed at 100 μM of vitamin.
At the end of the incubation period the cell layer was removed from the insert and homogenized, and the homogenate was centrifuged. The amount of vitamin present in the supernatant was determined by HPLC. The centrifugation pellet was then resuspended in 1 ml of water, and 1.5 ml of isopropanol and 2.5 ml of hexane were added to the suspension. After stirring, the organic phase formed was analyzed, again by HPLC, for the concentration of vitamin K2 (MK7). The total of the two values was used to calculate the amount of vitamin internalized by the cell layer.

A short description of data set [2]: Stability tests of solid forms of reduced vitamin K2-(MK7) (oxidation of the reduced form over storage time). It is filed as physicochemical. The settings on record: for Reduced (t/t0 %): percentage of the initial value of the reduced form; for percentage of the initial value of the reduced form: packaging Alu/vacuum.

For the compound `CC(C)=CCC/C(C)=C/CC/C(C)=C/CC/C(C)=C/CC/C(C)=C/CC/C(C)=C/CC/C(C)=C/Cc1c(C)c(O)c2ccccc2c1O` [Reduced vitamin, menaquinol 7], the “amount of vitamin internalized by the cell layer (μg of vitamin per g of homogenate)” value in data set [1] (mean of wells 1-4) amounted to 1.1 μg/g hom; in data set [1] (well 1), 0.8 μg/g hom; in data set [1] (well 2) it was 1.6 μg/g hom; in data set [1] (well 3), 1.0 μg/g hom; in data set [1] (well 4), 0.8 μg/g hom. The “uptake by Caco-2 cell layer compared with the oxidized form” value in data set [1] (result in words, 100 μM vitamin) is “slightly but significantly higher uptake”.
On to `CC(C)=CCC/C(C)=C/CC/C(C)=C/CC/C(C)=C/CC/C(C)=C/CC/C(C)=C/CC/C(C)=C/CC1=C(C)C(=O)c2ccccc2C1=O` [Oxidised vitamin, menaquinone 7, reference compound], for which the “amount of vitamin internalized by the cell layer (μg of vitamin per g of homogenate)” value in data set [1] (mean of wells 1-4) turned out to be 0.6 μg/g hom; in data set [1] (well 1) it was 0.4 μg/g hom; in data set [1] (well 2) it was 0.5 μg/g hom; in data set [1] (well 3), 0.6 μg/g hom; in data set [1] (well 4) it was 0.7 μg/g hom.
With `CC(C)=CCC/C(C)=C/CC/C(C)=C/CC/C(C)=C/CC/C(C)=C/CC/C(C)=C/CC/C(C)=C/Cc1c(C)c(O)c2ccccc2c1O` [menaquinol 7, reference compound], the figures for the “Reduced (t/t0 %)” value in data set [2] (Time 0 days) and in data set [2] (Time 3 days) were 100% and 4%, respectively.
Regarding `CC(C)=CCC/C(C)=C/CC/C(C)=C/CC/C(C)=C/CC/C(C)=C/CC/C(C)=C/CC/C(C)=C/Cc1c(C)c(O)c2ccccc2c1O` [menaquinol 7], the “percentage of the initial value of the reduced form” value was determined as 100% in data set [2] (T = 0), 95.4% in data set [2] (T = 1 month), 98.9% in data set [2] (T = 2 months) and 97.9% in data set [2] (T = 3 months). Further, the “% vitamin oxidised” value in data set [2] (Time 0 days) worked out at 18.41%; in data set [2] (Time 3 days), 23.67%; in data set [2] (Time 6 days) it was 36.69%; in data set [2] (Time 10 days), 51.48%; in data set [2] (Time 11 days) it was 52.67%; in data set [2] (Time 12 days), 61.09%. Moreover, the “% vitamin reduced” value in data set [2] (Time 0 days) was found to be 81.58%; in data set [2] (Time 3 days), 76.24%; in data set [2] (Time 6 days), 63.16%; in data set [2] (Time 10 days), 48.27%; in data set [2] (Time 11 days) it was 47.04%; in data set [2] (Time 12 days) it was 38.44%.
